Residues, ends and D or L forms follow the SMILES beside them. *: point of attachment. Cbz = O=C(OCc1ccccc1)*; CH2F = FC*
Experiments:
786-0 cells [1] = test system: 786-0 cells
[2] = test system: primary murine hepatocytes
[3] = test system: various human and murine cell lines
NF-κB = type: cell-based, Human
VSVΔ51 [4] = type: cell-based, vesicular stomatitis virus
STAT1 and STAT2 = type: cell-based, Human
VSVΔ51 [5] = type: cell-based, vesicular stomatitis virus; remark: listed apart in the source
MG-1 = type: cell-based, Maraba virus
CT26WT colon carcinoma = conditions: mouse, in vivo
786-0 cells [6] = type: cell-based, Human
VSVΔ51 [7] = type: cell-based, vesicular stomatitis virus; remark: listed apart in the source
STAT1 = type: cell-based, Human
786-0 cells [8] = test: cells; conditions: Homo sapiens, 786-0, read-out: cell viability
VSVΔ51 [9] = type: cell-based, vesicular stomatitis virus; remark: listed apart in the source
786-0 cells [10] = type: cell-based, Human; remark: listed apart in the source
VSVΔ51 [11] = type: cell-based, vesicular stomatitis virus; remark: listed apart in the source
AAV2-Fluc = AAV2-Fluc production in HEK293 cells, functional titre assay; type: cell-based, adeno-associated virus (AAV)
VSV-wild type-FLuc = type: cell-based, vesicular stomatitis virus
4T1 mammary carcinoma = conditions: mouse, in vivo
VSVΔ51 [12] = type: cell-based, vesicular stomatitis virus; remark: listed apart in the source
IFN-β = type: cell-based, Human

## COC(=O)C[C@H](NC(=O)[C@H](C)NC(=O)[C@@H](NC(=O)OCc1ccccc1)C(C)C)C(=O)CF [Z-VAD-FMK] (Cbz-Val-Ala-Asp(OMe)-CH2F)
786-0 cells [1]
  cell viability: 71%

## NS(=O)(=O)OC[C@@H]1C[C@H](n2ccc3c(N[C@H]4CCc5ccccc54)ncnc32)C[C@@H]1O [pevonedistat, ((1S,2S,4S)-4-(4-(((S)-2,3-dihydro-1H-inden-1-yl)amino)-7H-pyrrolo[2,3-d]pyrimidin-7-yl)-2-hydroxycyclopentyl) methyl sulfamate]
[2]
  viability, compound + VSVΔ51 vs compound only: no significant viability differences
[3]
  cytotoxicity in combination with VSVΔ51: increased cytotoxicity
NF-κB
  NF-κB protein expression in nuclear fractions: markedly less NF-κB protein expression
  transcription of pro-inflammatory cytokines controlled by NF-κB signaling including IFN-β: repressed transcription
786-0 cells [1]
  cell killing and apoptosis activation: increased cell killing and apoptosis activation
  lowest concentration with significant viability differences with vs without VSVΔ51: ≥ 120 nM
VSVΔ51 [4]
  VSVΔ51-GFP viral titer: increases
  VSVΔ51 viral titer: significantly increased
STAT1 and STAT2
  downstream RNA levels of IFN-1 effectors: decreased
  total protein levels of STAT1 and STAT2: decreased
VSVΔ51 [5]
  VSVΔ51 infection: able to increase VSVΔ51 infection
  increase in viral titer: over 15 fold
MG-1
  production of MG-1: facilitate production
CT26WT colon carcinoma
  overall survival after CT26WT re-challenge: improved overall survival
  tumor volume progression after CT26WT re-challenge: suppress tumor volume progression more effectively
  tumor volumes post-treatment: significantly smaller
786-0 cells [6]
  caspase-8 activity: remained significantly increased
  cleaved caspase-3 levels: markedly higher levels
  full-length poly (ADP-ribose) polymerase (PARP) levels: decreased levels
  proportion of Annexin V-positive cells: significantly greater proportion
  time of peak caspase-8 activity: 36 hpi
VSVΔ51 [7]
  VSVΔ51 growth (relative titer), multi-step growth curve: robustly enhance
  VSVΔ51 infectivity (fluorescent signal, plaque assay): increased VSVΔ51 infectivity
  average plaque diameter (plaque expansion assay): significantly increased
  time of administration capable of increasing VSVΔ51 viral titer: 24 hours prior until 4 hours after infection
  viral GFP transgene expression: marked increase
STAT1
  phosphorylation levels of STAT1 and STAT2 in response to IFN-β treatment: unable to markedly influence
  protein availability of ISGF3 components including STAT1: global reduction in protein availability
  transcription of STAT1 and downstream ISGs (IRF7, MX2, IFTM1): significantly decrease
  transcription of STAT1 in the presence of exogenous IFN: inhibiting the transcription of STAT1
786-0 cells [8]
  viability at 1 µM: 33%
VSVΔ51 [9]
  viral titer of VSVΔ51: able to increase the viral titer
786-0 cells [10]
  STAT1 transcription factor activity predicted by TFactS: inhibited
  downregulation of promyelocytic leukemia protein (PML) gene: approximately 79 fold
  expression of genes related to the IFN-1 GO term: significantly downregulated
  genes significantly downregulated: 3,326 genes
  genes significantly upregulated (P<0.05, log 2-fold change >2): 3,038 genes
VSVΔ51 [11]
  viral replication: does not increase viral replication
AAV2-Fluc; HEK293, functional titre assay
  optimal concentration for AAV2-Fluc enhancement: 200 to 400 nM
AAV2-Fluc; HEK293, treated 60 min post transfection, 72 h, over a range of concentrations
  enhancement of AAV2-Fluc viral signal: up to 2.6 fold
VSV-wild type-FLuc
  production of wild-type VSV: facilitate production
4T1 mammary carcinoma
  survival: significantly prolonged survival
  tumor volumes post-treatment: significantly smaller
VSVΔ51 [12]
  increase in VSVΔ51 viral titer: over 30 fold

## Nc1ccc(SCC(=O)Nc2ccc3nc(NC(=O)c4ccc(C(F)(F)F)cc4)sc3c2)cc1 [ZM223, N-(6-(2-((4-aminophenyl)thio)acetamido)benzo[d]thiazol-2-yl)-4-(trifluoromethyl) benzamide]
VSVΔ51 [7]
  VSVΔ51 infectivity (fluorescent signal, plaque assay): some viral sensitizing activity
IFN-β
  IFN-β secretion: unable to do the same

## CCOc1cccc(F)c1C#Cc1cn([C@@H]2O[C@H](CNS(N)(=O)=O)[C@@H](O)[C@H]2O)c2ncnc(N)c12 [TAS4464]
786-0 cells [1]
  VSVΔ51 oncolysis (cell viability, Alamar blue): enhanced oncolysis
VSVΔ51 [7]
  VSVΔ51 infectivity (fluorescent signal, plaque assay): increased VSVΔ51 infectivity

From patent US20260015592A1, “NEDDYLATION-ACTIVATING ENZYME INHIBITORS AS VIRAL SENSITIZERS AND USES THEREOF” (priority 2022, published 2026)
